The source of these data is patent publication US20070037883A1, “Therapeutic compositions” (priority 2003, published 2007).

Series [1] addresses T1, gp91phox-containing NADPH-oxidase in the mouse macrophage cell line J774 (Mus musculus, UniProt Q61093).
T1 construct: endogenous in cells; host or cells: J774 mouse macrophage cell line (intact cells)
T1 sequence (Q61093 2-570 limits assumed): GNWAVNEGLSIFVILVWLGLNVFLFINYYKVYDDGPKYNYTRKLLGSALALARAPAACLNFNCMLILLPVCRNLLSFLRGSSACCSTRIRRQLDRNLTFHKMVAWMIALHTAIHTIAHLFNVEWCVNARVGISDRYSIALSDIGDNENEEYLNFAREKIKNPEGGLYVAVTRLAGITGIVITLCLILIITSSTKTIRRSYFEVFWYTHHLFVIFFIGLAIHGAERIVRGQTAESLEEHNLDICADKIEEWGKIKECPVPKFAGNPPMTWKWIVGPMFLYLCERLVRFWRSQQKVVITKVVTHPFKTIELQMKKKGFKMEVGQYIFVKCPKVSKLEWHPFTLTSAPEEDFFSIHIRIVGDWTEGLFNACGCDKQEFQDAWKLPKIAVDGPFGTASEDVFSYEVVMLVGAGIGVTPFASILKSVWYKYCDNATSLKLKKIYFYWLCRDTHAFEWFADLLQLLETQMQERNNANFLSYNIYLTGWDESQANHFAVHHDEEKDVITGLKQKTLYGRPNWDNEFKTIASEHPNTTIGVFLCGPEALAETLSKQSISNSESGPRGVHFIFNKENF
T1 sequence (Q61462 1-192 partner): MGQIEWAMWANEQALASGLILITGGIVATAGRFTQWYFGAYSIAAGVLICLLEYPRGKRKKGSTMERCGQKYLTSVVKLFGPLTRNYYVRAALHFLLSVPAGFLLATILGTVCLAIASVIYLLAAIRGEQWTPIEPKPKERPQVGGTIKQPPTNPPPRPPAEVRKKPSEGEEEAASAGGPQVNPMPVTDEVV
Description: NADPH oxidase activity in intact J774 mouse macrophages. The format is cell-based. The note with it: FIG. 2b.

In series [2] the target is endothelial nitric oxide synthase (Homo sapiens, UniProt P29474). The note with it: read-out: IC50, inhibition of endothelial nitric oxide synthase; Stuehr et al. 1991; Wang et al. 1993; cited from earlier work.
A further series deals with Nox4 mRNA. The series can be described thus: Nox4 mRNA expression in cultured mouse VSMCs, real-time PCR. The note with it: 500 nmol/L oligonucleotide, 24 h, FIG. 9. The format is cell-based. Here is the method: Mouse VSMCs were plated sparsely onto 96-well ViewPlates (Packard Bioscience) (for superoxide measurements) or onto 35 mm culture dishes (for RNA extraction) such that they were 30-50% confluent at the time of transfection 24 h later. At the time of transfection, cells were washed with serum- and antibiotic free DMEM and were then incubated in serum- and antibiotic-free DMEM containing 8 μL/mL Oligofectamine Transfection Reagent (Invitrogen Life Technologies) complexed with the antisense (0-1000 nmol/L), mismatch (500 nmol/L) or scrambled (560 nmol/L) oligonucleotides. […]
RNA was extracted from cultured and freshly isolated mouse VSMCs, and from freshly isolated whole aortas using RNAwiz (Ambion) according to the manufacturer's protocol. RNA concentrations were determined spectrophotometrically by measuring absorbance at 260 nm. […]
Real-time PCR and the ΔΔCt method were used as previously described to examine mRNA expression of Nox4 and Nox1 relative to a “reference” sample. […] 18S ribosomal RNA was used as the internal standard for each reaction and was detected with commercially available rodent 18S primers and a 5′-VIC-labeled probe (PE Biosystems; Table 7).
Nox4 was amplified in duplex with 18S in PCR mixtures (25 μL final volume) containing 1× TaqMan (registered trademark). […] Reactions were performed and fluorescence monitored in the ABI Prism 7700 Sequence Detector (PE Biosystems).
(In general: In qPCR the cycle at which signal appears reflects the starting amount.)

endothelial nitric oxide synthase, sequence (P29474 2-1203): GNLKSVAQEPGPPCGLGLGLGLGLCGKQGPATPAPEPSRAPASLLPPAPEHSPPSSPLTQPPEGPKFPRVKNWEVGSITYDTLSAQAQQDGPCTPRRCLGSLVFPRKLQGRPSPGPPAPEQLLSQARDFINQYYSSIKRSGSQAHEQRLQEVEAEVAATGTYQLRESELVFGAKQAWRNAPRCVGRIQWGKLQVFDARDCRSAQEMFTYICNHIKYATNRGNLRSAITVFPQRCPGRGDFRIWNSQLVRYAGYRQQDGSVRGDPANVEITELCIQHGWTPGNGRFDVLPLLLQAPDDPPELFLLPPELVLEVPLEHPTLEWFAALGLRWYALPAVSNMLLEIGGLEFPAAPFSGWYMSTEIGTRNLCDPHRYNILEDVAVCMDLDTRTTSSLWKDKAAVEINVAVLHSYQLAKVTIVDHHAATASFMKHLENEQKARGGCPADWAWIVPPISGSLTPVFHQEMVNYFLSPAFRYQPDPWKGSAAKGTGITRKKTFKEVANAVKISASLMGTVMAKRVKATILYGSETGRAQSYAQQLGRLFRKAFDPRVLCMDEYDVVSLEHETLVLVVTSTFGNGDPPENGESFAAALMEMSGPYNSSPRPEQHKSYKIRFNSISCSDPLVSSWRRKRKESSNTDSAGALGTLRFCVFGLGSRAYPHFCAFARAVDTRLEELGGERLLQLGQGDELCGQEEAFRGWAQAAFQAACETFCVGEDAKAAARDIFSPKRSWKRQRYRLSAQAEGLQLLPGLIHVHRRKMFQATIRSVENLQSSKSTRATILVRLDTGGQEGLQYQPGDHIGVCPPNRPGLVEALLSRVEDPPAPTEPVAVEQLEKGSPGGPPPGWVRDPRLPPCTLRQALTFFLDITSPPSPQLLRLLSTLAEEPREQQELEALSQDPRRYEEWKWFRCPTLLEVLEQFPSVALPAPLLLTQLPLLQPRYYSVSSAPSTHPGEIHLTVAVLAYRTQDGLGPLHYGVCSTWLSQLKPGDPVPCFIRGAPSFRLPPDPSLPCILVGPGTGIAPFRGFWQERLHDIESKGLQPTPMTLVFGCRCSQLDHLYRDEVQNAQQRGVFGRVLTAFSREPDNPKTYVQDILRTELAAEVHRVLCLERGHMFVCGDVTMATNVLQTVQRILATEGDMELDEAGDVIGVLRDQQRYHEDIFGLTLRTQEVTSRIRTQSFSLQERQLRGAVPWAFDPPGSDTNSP

With “1-amino-4[[4[[4-chloro-6-[[n-sulfophenyl]amino]-1,3,5-triazin-2-yl]amino]-3-sulfophenyl]amino]-9,10-dihydro-9,10-dioxo-2-anthracene-sulfonic acid wherein n is 3 or 4 [Reactive blue-2]”, the “effect on gp91phox-containing NADPH-oxidase in J774 macrophages / phagocytic cells” value in series [1] is given as “ineffective”. Take `c1ccc2c(c1)[I+]c1ccccc1-2` [DPI, diphenyleneiodonium]: in series [2], the IC50 is 180 to 300 nM. For the compound “+13/+33 mismatch: mismatch control oligonucleotide TAGGCCAGCAAGCTCCTACA [SEQ ID NO:18], differs in three base positions (chemistry not given here)”, in the series with Nox4 mRNA, the “reduction in Nox4 mRNA expression” value is given as “no effect”.

As to “+13/+33 scrambled: scrambled control oligonucleotide CGTCACGCTCAGCTCACCGT [SEQ ID NO:19], same base composition in random order (chemistry not given here)”, in the series with Nox4 mRNA, the “reduction in Nox4 mRNA expression” value is on record as “no effect”.

One may read the IC50 as the concentration that gives 50% inhibition.
